# PMC11420952, “A Chemical Approach to Assess the Impact of Post-translational Modification on MHC Peptide Binding and Effector Cell Engagement” (ACS Chemical Biology, 2024)
# Where no end group is shown, it is not given here. [ ]: non-standard residue; d: D form. The star is where a group is joined. Biotin = O=C1N[C@H]2[C@H](CS[C@H]2CCCCC(=O)*)N1; Cit = NC(=O)NCCC[C@H](N)C(=O)O
# Assays:
# H-2K^b [1] = target: T1, H-2K^b (Mus musculus, UniProt P01901); experiment: cell-based; conditions: RMA-S cells, peptide 20 μM, APC anti-mouse H-2K^b antibody, flow cytometry; for effect of PTM on MHC binding versus the unmodified peptide (ovaWT or mbpWT): Figures 2B and 3B, mean ± SD n = 4, two-tailed t-test; for effect of PTM on MHC binding versus sarsWT: Figure 1C, mean ± SD n = 3, two-tailed t-test
# T1 construct: endogenous in cells; host or cells: RMA-S cells (TAP-deficient)
# T1 sequence (P01901 22-369): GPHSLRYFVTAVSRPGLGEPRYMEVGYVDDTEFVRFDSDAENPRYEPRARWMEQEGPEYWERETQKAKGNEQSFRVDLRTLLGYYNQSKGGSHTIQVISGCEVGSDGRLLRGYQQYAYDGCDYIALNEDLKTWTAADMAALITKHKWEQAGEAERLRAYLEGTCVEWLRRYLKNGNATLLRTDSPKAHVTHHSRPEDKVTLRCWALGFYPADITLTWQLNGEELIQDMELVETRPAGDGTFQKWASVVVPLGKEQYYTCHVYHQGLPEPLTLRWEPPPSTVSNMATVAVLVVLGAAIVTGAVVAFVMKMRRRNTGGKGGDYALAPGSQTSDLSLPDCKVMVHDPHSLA
# T1 sequence (P01887 21-119 partner): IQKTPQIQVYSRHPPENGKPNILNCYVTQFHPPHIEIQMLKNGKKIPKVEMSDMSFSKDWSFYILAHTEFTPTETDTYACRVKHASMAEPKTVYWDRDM
# [2] = system: OVA specific TCR of B3Z T cell hybridoma; experiment: B3Z T cell activation with peptide-loaded RMA-S cells (NFAT-LacZ / CPRG); assay type: cell-based; conditions: RMA-S cells with peptide and B3Z T cells overnight, effector to target 1:1; β-galactosidase by CPRG, absorbance 570 nm; Figure 2C, mean ± SD n = 4
# Text: To assess the impact of ovaWT PTMs on TCR recognition, we utilized the B3Z T cell hybridoma cell line that contains an OVA specific TCR along with a NFAT-LacZ reporter gene that encodes for β-galactosidase on an IL-2 inducible promoter.[79] Upon B3Z recognition of the OVA pMHC complex on RMA-S cells, IL-2 production promotes β-galactosidase expression, which can hydrolyze chlorophenol red-β-D-galactopyranoside (CPRG), and the resulting color change is representative of activation levels.
# 10^5 RMA-S cells were seeded in a treated 96 well plate at 37 °C overnight. The following day the culture media was replaced with media containing indicated concentration of peptide along with 10^5 B3Z cells in culture media and coincubated overnight. Cells were then spun down at 500xg for 5 min and washed with 1X PBS a total of two times. Lysis buffer containing 0.2% saponin, 500 μM CPRG reagent, 100 mM MgCl2, and 100 mM β-mercaptoethanol in 1X PBS was added to each well. After 2–4 h absorbance 570 was recorded using a BioTek Epoch 2 microplate reader.
# MHC on RMA-S cells = experiment: Mild acid elution of MHC-bound peptides from RMA-S cells and mass spectrometry; assay type: cell-based; conditions: 10^9 RMA-S cells, 20 μM peptide, mild acid elution pH 3.3, LC-MS/MS (LTQ-Orbitrap); Figures S5-S8
# Procedure: We then sought to detect changes in peptide binding via a competition assay using the parent cell line (RMA) that has a competent TAP system. To this end, we performed a competition assay using the panel of OVA peptides barring PTM mark in live RMA cells. The assay was performed by coincubating RMA cells individually with PTM-modified peptides and also ovaFl (SIINFEK(FITC)L), in which the […] of lysine is modified with fluoresceine. ovaFl has long been utilized by the field to interrogate binding of untagged peptides for MHC molecules. A decrease in cellular fluorescence should indicate higher association levels with MHC molecules, thereby informing on the relative affinity of the PTM-modified molecules. Critically, this assay retains MHC molecules within a physiologically relevant context and this alternative readout should complement the RMA-S MHC stabilization assay. […]
# The emitter tip of the analytical column was laser-pulled to produce an opening of 2–5 μm, and a 2 mm kasil frit was used in place of the irregular reverse phase (RP) resin. […] If the same precursor ion was selected three times or was detected twice within a 20-s repeat duration, the ion was dynamically excluded for 15 s. […]
# H-2K^b [3] = target: T1, H-2K^b; conditions: reported in the literature; cited from earlier work
substance,measurement,setting,value
Biotinylated Lysine SIINFKEL: ovaWT with biotinylated lysine (SIINFK(Biotin)EL; not fully specified),effect of PTM on MHC binding versus the unmodified peptide (ovaWT or mbpWT),H-2K^b [1],binding levels are altered but the change is not significant
same,effect of PTM on TCR recognition (B3Z activation) versus ovaWT,[2],reduction in TCR recognition
Citrullinated ESIVRFPNI: sarsWT with arginine to citrulline (R5) (ESIV[Cit]FPNI),effect of PTM on MHC binding versus sarsWT,H-2K^b [1],no significant effect
N-Acetyl ESIVRFPNI [sarsWT with N-terminus acetylation],effect of PTM on MHC binding versus sarsWT,H-2K^b [1],completely disrupted MHC binding
Phosphoserine SIINFEKL: ovaWT with phosphorylated N-terminal serine,effect of PTM on MHC binding versus the unmodified peptide (ovaWT or mbpWT),H-2K^b [1],significant decrease in MHC binding
same,effect of PTM on TCR recognition (B3Z activation) versus ovaWT,[2],reduction in TCR recognition
"SIINFEKL [ovaWT, reference compound]",detection of MHC-bound peptide after elution from live RMA-S cells,MHC on RMA-S cells,clearly detected
SNFVSAGI [cntPEP],interaction with H-2K^b (negative control),H-2K^b [3],not interact appreciably
ovaK7m3: ovaWT with trimethylation of K7,effect of PTM on MHC binding versus the unmodified peptide (ovaWT or mbpWT),H-2K^b [1],does not disrupt binding
same,detection of MHC-bound peptide after elution from live RMA-S cells,MHC on RMA-S cells,detected by mass spectrometry
